From patent publication US8362000B2, “Azetidinyl diamides as monoacylglycerol lipase inhibitors” (Janssen Pharmaceutica NV, priority 2009, dated 2013) come the findings set out here.

Changes are numbered by the printed parent chain. Where two headings read alike, the source gives them in different places. A value given as a limit tells only on which side of the number the result lay.

The target in assay [1] is T1, purified wild type MGL (wt-MGLL 6H-11-313) (Homo sapiens, UniProt Q99685).
T1 sequence (Q99685 1-303): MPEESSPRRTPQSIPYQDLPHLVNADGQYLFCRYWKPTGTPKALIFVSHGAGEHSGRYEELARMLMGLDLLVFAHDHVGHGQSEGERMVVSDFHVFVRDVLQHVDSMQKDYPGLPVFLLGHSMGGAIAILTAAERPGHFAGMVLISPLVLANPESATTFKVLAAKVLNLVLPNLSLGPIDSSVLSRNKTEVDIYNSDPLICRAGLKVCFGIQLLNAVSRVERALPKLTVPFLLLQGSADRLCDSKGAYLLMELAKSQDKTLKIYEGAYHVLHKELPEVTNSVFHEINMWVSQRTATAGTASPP

Another assay deals with T2, mutant MGL (Homo sapiens, UniProt Q99685, L169S/L176S).
T2 sequence (Q99685 1-303 L169S/L176S): T1 sequence (Q99685 1-303) with L169S, L176S
Kind of assay: MGL ThermoFluor assay - mutant. The format is binding. A general note: Differential scanning fluorimetry follows unfolding on heating by fluorescence.

In a further assay the target is T3, MGL (Rattus norvegicus, UniProt Q8R431).
T3 construct: one g rat brain was homogenized using a Polytron homogenizer; from tissue; host or cells: rat brain homogenate
T3 sequence (Q8R431 1-303): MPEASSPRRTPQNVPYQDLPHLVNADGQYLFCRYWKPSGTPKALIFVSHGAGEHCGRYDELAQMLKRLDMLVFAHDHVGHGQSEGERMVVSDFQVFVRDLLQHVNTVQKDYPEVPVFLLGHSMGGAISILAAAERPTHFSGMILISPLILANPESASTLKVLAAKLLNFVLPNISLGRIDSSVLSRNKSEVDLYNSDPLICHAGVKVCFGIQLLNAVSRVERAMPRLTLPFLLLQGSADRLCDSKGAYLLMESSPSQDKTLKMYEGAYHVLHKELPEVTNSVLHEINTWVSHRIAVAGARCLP
Kind of assay: 2-AG accumulation assay in rat brain homogenate. Type of assay: biochemical. The conditions noted are these: rat brain homogenate, 2-AG accumulation as percent of vehicle; for 2-AG accumulation, % of vehicle control at 1 µM: compound 1 μM, read-out: Rat Brain 2AG % VehCntrl (%) @ 1 μM; for 2-AG accumulation, % of vehicle control at 10 µM: compound 10 μM, read-out: Rat Brain 2AG % VehCntrl (%) @ 10 μM; for 2-AG accumulation, % of vehicle control at 0.1 µM: compound 0.1 μM, read-out: Rat Brain 2AG % VehCntrl (%) @ 0.1 μM.

Setting [2] is: ThermoFluor concentration-response, read-out: MGL mutant ThermoFluor Kd.
[3] abbreviates: ThermoFluor thermal stability binding assay, read-out: MGL mutant ThermoFluor Kd.
The mark [4] stands for this setting: ThermoFluor, compound concentration measured by qNMR, read-out: MGL mutant ThermoFluor qKd (μM) (using qNMR conc.).

What is called IC50 is the concentration that gives 50% inhibition. Read a low IC50 as greater potency in that assay.

In turn, `N#Cc1ccc(-c2ccc(C(=O)N3CC(N4CCN(C(=O)c5nccs5)CC4)C3)cc2)cc1` [Cpd 167, 4′-({3-[4-(1,3-Thiazol-2-ylcarbonyl)piperazin-1-yl]azetidin-1-yl}carbonyl)biphenyl-4-carbonitrile] gave an IC50 in assay [1] of 15.2 nM. The Kd on mutant MGL (setting [2]) turned out to be 0.0558 µM. The 2-AG accumulation, % of vehicle control at 1 µM on MGL was 481%.
The corresponding values for `O=C(c1ccc(C2CCCCC2)cc1)N1CC(N2CCN(C(=O)c3nccs3)CC2)C1` [Cpd 889] are < 5 nM, 0.002 µM and 683%.
In turn, `CC1CN(C2CN(C(=O)c3ccc(Cc4ccccc4)cc3)C2)CCN1C(=O)c1nccs1` (stereo not shown) [Cpd 115] showed an IC50 in assay [1] of 11.7 nM. Also, the Kd at mutant MGL (setting [2]) worked out at 0.037 µM. In addition, the 2-AG accumulation, % of vehicle control at 10 µM at MGL amounted to 579%.
Take `COc1cc(C(=O)N2CC(N3CCN(C(=O)c4cscn4)CC3)C2)ccc1-c1ccccc1` [Cpd 1253]: the IC50 in assay [1] was determined as 725 nM. Besides, the Kd at mutant MGL (setting [2]) worked out at 0.088 µM. Besides, on MGL, the 2-AG accumulation, % of vehicle control at 0.1 µM is 110%; the 2-AG accumulation, % of vehicle control at 1 µM was found to be 190%; the 2-AG accumulation, % of vehicle control at 10 µM was 407%.
Turning to `O=C(c1ccc(-c2ccccc2)cc1)N1CCN(C2CN(C(=O)c3ncco3)C2)CC1` [Cpd 1283, 1-(Biphenyl-4-ylcarbonyl)-4-[1-(1,3-oxazol-2-ylcarbonyl)azetidin-3-yl]piperazine], in assay [1], the IC50 stood at 2170 nM. Also, on mutant MGL (setting [2]), the Kd worked out at 0.523 µM. At MGL, the 2-AG accumulation, % of vehicle control at 1 µM was 62%.
The molecule `O=C(c1ccccc1)N1CCN(C2CN(C(=O)c3ccc(OCc4ccc(Cl)s4)cc3)C2)CC1` [Cpd 972] displayed a half-inhibitory concentration (IC50) in assay [1] of 23 nM. Further, the Kd on mutant MGL (setting [3]) was determined as 0.08 µM. Further, the 2-AG accumulation, % of vehicle control at 1 µM at MGL amounted to 683%.
In assay [1], `Cn1cc(Cc2ccc(F)cc2)c2ccc(C(=O)N3CC(N4CCN(C(=O)c5ccc[nH]5)CC4)C3)cc21` [Cpd 1028] registered an IC50 of 16 nM. Moreover, on mutant MGL (compound concentration measured by qNMR, read-out: MGL mutant ThermoFluor qKd (using qNMR conc.)), the Kd was 0.011 µM. Besides, on MGL, the 2-AG accumulation, % of vehicle control at 1 µM was 647%.
In turn, `O=C(c1ccc(Oc2cccc(Cl)c2)nc1)N1CC(N2CCN(C(=O)c3nccs3)CC2)C1` [Cpd 683] gave an IC50 in assay [1] of 31 nM. Moreover, on mutant MGL (setting [2]), the Kd is 0.039 µM. Further, the 2-AG accumulation, % of vehicle control at 1 µM on MGL is 335%.
On the same counts, the results for `CCCCCCCCCCCCCCCC(=O)N1CC(N2CCN(C(=O)c3nccs3)CC2)C1` [Cpd 636] are 21 nM, 0.119 µM and 296%.
On the same counts, the results for `O=C(c1ccc(OC(F)(F)F)c(Cl)c1)N1CC(N2CCN(C(=O)c3nccs3)CC2)C1` [Cpd 693] are 47 nM, 0.06 µM and 299%.
Turning to `O=C(c1ccc2c(c1)CCN(c1ccccc1)C2)N1CC(N2CCN(C(=O)c3nccs3)CC2)C1` [Cpd 883], the IC50 in assay [1] is < 5 nM. The Kd at mutant MGL (setting [3]) amounted to 0.059 µM. The 2-AG accumulation, % of vehicle control at 1 µM on MGL is 767%.
The molecule `O=C(c1nccs1)N1CCN(C2CN(C(=O)C3CCC(c4ccc(Cl)cc4)CC3)C2)CC1` (stereo not shown) [Cpd 637] gave an IC50 in assay [1] of 41 nM. At mutant MGL (setting [2]), the Kd is 0.053 µM. Further, the 2-AG accumulation, % of vehicle control at 1 µM at MGL was 272%.
On the same counts, the results for `O=C(c1cscn1)N1CCN(C2CN(C(=O)c3sc4cc(-c5ccccc5)ccc4c3C(F)(F)F)C2)CC1` [Cpd 1098, 1-(1-{[6-Phenyl-3-(trifluoromethyl)-1-benzothiophen-2-yl]carbonyl}azetidin-3-yl)-4-(1,3-thiazol-4-ylcarbonyl)piperazine] are 12 nM, 0.031 µM and 296%.
On the same counts, the results for `O=C(c1ccc2c(ccn2-c2ncccn2)c1)N1CC(N2CCN(C(=O)c3cscn3)CC2)C1` [Cpd 1201, 1-Pyrimidin-2-yl-5-({3-[4-(1,3-thiazol-4-ylcarbonyl)piperazin-1-yl]azetidin-1-yl}carbonyl)-1H-indole] are 151 nM, 0.179 µM and 475%.
`O=C(c1ccccc1)N1CCN(C2CN(C(=O)c3ccc4c(ccn4-c4cc(F)c(F)c(F)c4)c3)C2)CC1` [Cpd 569] yielded a half-inhibitory concentration (IC50) in assay [1] of 21 nM. Moreover, the Kd on mutant MGL (setting [4]) worked out at 0.059 µM. Besides, the 2-AG accumulation, % of vehicle control at 1 µM on MGL was 198%.
The corresponding values for `Cc1cn(-c2cccc(OC(F)(F)F)c2)c2ccc(C(=O)N3CC(N4CCN(C(=O)c5nccs5)CC4)C3)cc12` [Cpd 1068] are 7 nM, 0.002 µM and 849%.
Consider `COc1cc(C(=O)N2CC(N3CCN(C(=O)c4cscn4)CC3)C2)ccc1-c1cccc(C(F)(F)F)c1` [Cpd 248, 1-(1-{[2-Methoxy-3′-(trifluoromethyl)biphenyl-4-yl]carbonyl}azetidin-3-yl)-4-(1,3-thiazol-4-ylcarbonyl)piperazine], for which, in assay [1], the IC50 was found to be 7 nM. In addition, the Kd on mutant MGL (setting [3]) came to 0.0067 µM. The 2-AG accumulation, % of vehicle control at 1 µM at MGL came out at 312%.
Regarding `O=C(c1nccs1)N1CCN(C2CN(C(=O)c3cccc(-c4ccccc4)c3F)C2)CC1` [Cpd 1172], the IC50 in assay [1] amounted to 63 nM. The Kd at mutant MGL (setting [2]) came to 0.178 µM. On MGL, the 2-AG accumulation, % of vehicle control at 1 µM is 931%.
As to `O=C(c1ccc(-c2cccc(C(F)(F)F)c2)cc1)N1CCN(C2CN(C(=O)c3ccc[nH]3)C2)CC1` [Cpd 1166, 1-[1-(1H-Pyrrol-2-ylcarbonyl)azetidin-3-yl]-4-{[3′-(trifluoromethyl)biphenyl-4-yl]carbonyl}piperazine], in assay [1], it took 52 nM to reach half-maximal inhibition (IC50). Besides, on mutant MGL (setting [2]), the Kd was 0.01 µM. The 2-AG accumulation, % of vehicle control at 1 µM at MGL came out at 176%.
Consider `Cc1c(C(=O)N2CC(N3CCN(C(=O)c4nccs4)CC3)C2)[nH]c2ccc(-c3ccc(F)cc3)cc12` [Cpd 1075, 5-(4-Fluorophenyl)-3-methyl-2-({3-[4-(1,3-thiazol-2-ylcarbonyl)piperazin-1-yl]azetidin-1-yl}carbonyl)-1H-indole], for which the IC50 in assay [1] was 8 nM. Besides, the Kd at mutant MGL (setting [4]) worked out at 0.01 µM. Further, at MGL, the 2-AG accumulation, % of vehicle control at 1 µM stood at 833%.
Take `COc1cc(C(=O)N2CC(N3CCN(C(=O)c4ccccc4)CC3)C2)ccc1-c1ccc(F)c(Cl)c1` [Cpd 263, 1-{1-[(3′-Chloro-4′-fluoro-2-methoxybiphenyl-4-yl)carbonyl]azetidin-3-yl}-4-(phenylcarbonyl)piperazine]: it took 28.5 nM to reach half-maximal inhibition in assay [1] (IC50). Moreover, the Kd on mutant MGL (setting [3]) amounted to 0.005 µM. Also, the 2-AG accumulation, % of vehicle control at 1 µM on MGL is 199%.
In the case of `Cc1nc(-c2ccc(F)cc2)sc1C(=O)N1CC(N2CCN(C(=O)c3nccs3)CC2)C1` [Cpd 1150], in assay [1], the midpoint of inhibition, the IC50, lay at 36 nM. Moreover, the Kd at mutant MGL (setting [2]) worked out at 0.013 µM. Also, on MGL, the 2-AG accumulation, % of vehicle control at 0.1 µM worked out at 139%; the 2-AG accumulation, % of vehicle control at 1 µM was 459%; the 2-AG accumulation, % of vehicle control at 10 µM amounted to 715%.
In the case of `O=C(c1ccc2c(cnn2-c2ccccc2)c1)N1CC(N2CCN(C(=O)c3cscn3)CC2)C1` [Cpd 1163, 1-Phenyl-5-({3-[4-(1,3-thiazol-4-ylcarbonyl)piperazin-1-yl]azetidin-1-yl}carbonyl)-1H-indazole], half-maximal inhibition in assay [1] (IC50) was put at 48 nM. Further, the Kd on mutant MGL (setting [2]) came to 0.073 µM. Also, the 2-AG accumulation, % of vehicle control at 1 µM at MGL is 244%.
The corresponding values for `O=C(c1ccc(-c2ccc(C(F)(F)F)s2)cc1)N1CC(N2CCN(C(=O)c3nccs3)CC2)C1` [Cpd 1361, 1-(1,3-Thiazol-2-ylcarbonyl)-4-[1-({4-[5-(trifluoromethyl)thiophen-2-yl]phenyl}carbonyl)azetidin-3-yl]piperazine] are < 5 nM, 0.003 µM and 994%.
On the same counts, the results for `O=C(c1ccc(-c2nc(-c3ccc(Cl)cc3Cl)cs2)cc1)N1CC(N2CCN(C(=O)c3nccs3)CC2)C1` [Cpd 1329] are < 5 nM, 0.006 µM and 834%.
The corresponding values for `O=C(c1ccc(Oc2cc(C(F)(F)F)ccc2F)nc1)N1CC(N2CCN(C(=O)c3nccs3)CC2)C1` [Cpd 878] are < 5 nM, 0.088 µM and 288%.
